pIC50: −log10 of the molar value. Values joined by “and” are separate entries in the source; they are usually repeats but may differ in a detail not shown here. Equal entries are not always repeated. Where two headings read alike, the source gives them in different places.
Tests used:
[1] = target: c-kit (Homo sapiens, UniProt P10721); conditions: treatment of uveal melanoma cell lines
[2] = test system: uveal melanoma cell lines (OCM-1, OCM-3, 92-1 and mel 202); assay: Survival / cell death of the four uveal melanoma cell lines; assay type: cell-based, human
From the text: Cell culture: Four cell lines obtained from human primary uveal melanomas (OCM-1, OCM-3, 92-1 and mel 202) are used.

[3] = test system: skin melanoma cell lines
[4] = test system: OCM-3 cells; assay: XTT cell viability, uveal melanoma cell line OCM-3; conditions: for percentages of living cells as compared to 100% survival of untreated cells: runs 1 and 2
From the text: (§1) The test is based on a colorimetric change of the yellow tetrazolium slat XTT into orange formazan dye by the respiratory chain of viable cells (Roehm et al., 1991, J. Immunol. Assay, 142:257-265).

[5] = test system: BE skin melanoma cell line; conditions: read-out: IC50 of Salt I on survival
From the text: (§2) Cell proliferation kit II is purchased from Roche Diagnostic GmbH (Mannheim, Germany). The test is based on a colorimetric change of the yellow tetrazolium slat XTT into orange formazan dye by the respiratory chain of viable cells (Roehm et al., 1991, J. Immunol. Assay, 142:257-265).

[6] = test system: mel 202 cells; assay: XTT cell viability, uveal melanoma cell line mel 202; conditions: for percentages of living cells as compared to 100% survival of untreated cells: runs 1 and 2
From the text: as §1

[7] = test system: DFB skin melanoma cell line; conditions: read-out: IC50 of Salt I on survival
From the text: as §2

[8] = test system: UM 92-1 cells; conditions: runs 1 and 2
From the text: as §1

[9] = test system: OCM-1 cells; assay: XTT cell viability, uveal melanoma cell line OCM-1; conditions: for percentages of living cells as compared to 100% survival of untreated cells: runs 1 and 2
From the text: as §1

c-kit, sequence (P10721 26-976): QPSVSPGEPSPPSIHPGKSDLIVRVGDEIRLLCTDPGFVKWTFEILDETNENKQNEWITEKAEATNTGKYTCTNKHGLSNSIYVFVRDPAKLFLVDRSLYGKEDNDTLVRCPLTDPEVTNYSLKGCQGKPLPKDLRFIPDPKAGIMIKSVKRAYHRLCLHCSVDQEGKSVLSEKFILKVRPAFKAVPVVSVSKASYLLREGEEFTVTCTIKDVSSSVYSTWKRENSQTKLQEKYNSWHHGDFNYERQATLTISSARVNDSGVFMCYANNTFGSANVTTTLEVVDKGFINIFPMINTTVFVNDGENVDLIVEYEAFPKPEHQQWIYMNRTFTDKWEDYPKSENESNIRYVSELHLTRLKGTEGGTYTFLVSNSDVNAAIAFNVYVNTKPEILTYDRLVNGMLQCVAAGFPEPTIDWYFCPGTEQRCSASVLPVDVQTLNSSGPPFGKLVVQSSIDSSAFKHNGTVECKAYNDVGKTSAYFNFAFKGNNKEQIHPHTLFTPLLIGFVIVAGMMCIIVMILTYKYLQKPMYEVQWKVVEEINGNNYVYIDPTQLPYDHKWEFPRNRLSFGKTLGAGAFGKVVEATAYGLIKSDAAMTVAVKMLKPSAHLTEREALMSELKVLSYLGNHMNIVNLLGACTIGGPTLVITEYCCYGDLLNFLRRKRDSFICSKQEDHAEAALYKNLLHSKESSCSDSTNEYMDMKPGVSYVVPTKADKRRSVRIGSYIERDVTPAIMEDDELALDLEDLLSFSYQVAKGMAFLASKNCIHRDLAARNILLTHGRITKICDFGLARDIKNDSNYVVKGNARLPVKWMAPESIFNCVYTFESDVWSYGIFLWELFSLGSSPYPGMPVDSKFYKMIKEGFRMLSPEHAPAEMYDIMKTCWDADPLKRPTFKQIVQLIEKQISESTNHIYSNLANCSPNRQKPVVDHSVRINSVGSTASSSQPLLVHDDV

Structure (SMILES): Cc1ccc(NC(=O)c2ccc(CN3CCN(C)CC3)cc2)cc1Nc1nccc(-c2cccnc2)n1 [Compound I]
- effect on c-kit auto-phosphorylation [1]: blocks c-kit auto-phosphorylation
- cell death in vitro ([2]; four uveal melanoma cell lines): promotes in vitro cell death

Structure (SMILES): CS(=O)(=O)O.Cc1ccc(NC(=O)c2ccc(CN3CCN(C)CC3)cc2)cc1Nc1nccc(-c2cccnc2)n1 [Salt I]
- Salt I responsiveness [3]: no respondent
- percentages of living cells as compared to 100% survival of untreated cells ([4]; OCM-3, 24 h, 0.3 μM Salt I): 100% and 97%
- percentages of living cells as compared to 100% survival of untreated cells ([4]; OCM-3, 24 h, 0.6 μM Salt I): 100% and 105%
- percentages of living cells as compared to 100% survival of untreated cells ([4]; OCM-3, 24 h, 5 μM Salt I): 85% and 83%
- percentages of living cells as compared to 100% survival of untreated cells ([4]; OCM-3, 24 h, 10 μM Salt I): 87% and 98%
- percentages of living cells as compared to 100% survival of untreated cells ([4]; OCM-3, 48 h, 0.3 μM Salt I): 43% and 39%
- percentages of living cells as compared to 100% survival of untreated cells ([4]; OCM-3, 48 h, 0.6 μM Salt I): 34% and 27%
- pIC50 ([4]; read-out: IC50 of Salt I on survival, uveal melanoma cell line OCM-3, Example 1: 48 hours exposure): 6.82
- pIC50 [5]: < 4.70
- percentages of living cells as compared to 100% survival of untreated cells ([6]; mel 202, 24 h, 0.3 μM Salt I): 98% and 105%
- percentages of living cells as compared to 100% survival of untreated cells ([6]; mel 202, 24 h, 0.6 μM Salt I): 92% and 104%
- percentages of living cells as compared to 100% survival of untreated cells ([6]; mel 202, 24 h, 5 μM Salt I): 97% and 101%
- percentages of living cells as compared to 100% survival of untreated cells ([6]; mel 202, 24 h, 10 μM Salt I): 78% and 87%
- percentages of living cells as compared to 100% survival of untreated cells ([6]; mel 202, 48 h, 0.3 μM Salt I): 23% and 14%
- percentages of living cells as compared to 100% survival of untreated cells ([6]; mel 202, 48 h, 0.6 μM Salt I): 19% and 17%
- percentages of living cells as compared to 100% survival of untreated cells ([6]; mel 202, 48 h, 5 μM Salt I): 23% and 15%
- pIC50 ([6]; read-out: IC50 of Salt I on survival, uveal melanoma cell line mel 202, Example 1: 48 hours exposure): 7.15
- pIC50 [7]: < 4.70
- percentages of living cells as compared to 100% survival of untreated cells ([8]; UM 92-1, 24 h, 0.3 μM Salt I): 98% and 91%
- percentages of living cells as compared to 100% survival of untreated cells ([8]; UM 92-1, 24 h, 0.6 μM Salt I): 95%
- percentages of living cells as compared to 100% survival of untreated cells ([8]; UM 92-1, 24 h, 5 μM Salt I): 83% and 75%
- percentages of living cells as compared to 100% survival of untreated cells ([8]; UM 92-1, 24 h, 10 μM Salt I): 70% and 83%
- percentages of living cells as compared to 100% survival of untreated cells ([8]; UM 92-1, 48 h, 0.3 μM Salt I): 85% and 90%
- percentages of living cells as compared to 100% survival of untreated cells ([8]; UM 92-1, 48 h, 0.6 μM Salt I): 79% and 71%
- percentages of living cells as compared to 100% survival of untreated cells ([8]; UM 92-1, 48 h, 5 μM Salt I): 15% and 22%
- percentages of living cells as compared to 100% survival of untreated cells ([8]; UM 92-1, 48 h, 10 μM Salt I): 0% and 5%
- percentages of living cells as compared to 100% survival of untreated cells ([9]; OCM-1, 24 h, 0.3 μM Salt I): 95% and 97%
- percentages of living cells as compared to 100% survival of untreated cells ([9]; OCM-1, 24 h, 0.6 μM Salt I): 87% and 82%
- percentages of living cells as compared to 100% survival of untreated cells ([9]; OCM-1, 24 h, 5 μM Salt I): 63%
- percentages of living cells as compared to 100% survival of untreated cells ([9]; OCM-1, 24 h, 10 μM Salt I): 50% and 52%
- percentages of living cells as compared to 100% survival of untreated cells ([9]; OCM-1, 48 h, 0.3 μM Salt I): 62% and 59%
- percentages of living cells as compared to 100% survival of untreated cells ([9]; OCM-1, 48 h, 0.6 μM Salt I): 40% and 37%
- percentages of living cells as compared to 100% survival of untreated cells ([9]; OCM-1, 48 h, 5 μM Salt I): 27% and 23%
- percentages of living cells as compared to 100% survival of untreated cells ([9]; OCM-1, 48 h, 10 μM Salt I): 23% and 29%
- pIC50 ([9]; read-out: IC50 of Salt I on survival, uveal melanoma cell line OCM-1, Example 1: 48 hours exposure): 6.40
- cell loss ([2]; uveal melanoma cell lines, even at low concentrations of Salt I): drastic cell loss
